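Test compounds were applied to cells in 96-well plates for 48 hours at 5 doses. TGI is the concentration that stops growth completely.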
Columns and labels:
Experiment in all cases: NCI anticancer screen, dose series, 48 h
SNB-75 CNS = test system: SNB-75 CNS
CAKI-1 renal = test system: CAKI-1 renal
MDA-N = test system: MDA-N
MALME-3M melanoma = test system: MALME-3M melanoma
SK-OV-3 ovarian = test system: SK-OV-3 ovarian
HOP-92 NSCLC = test system: HOP-92 NSCLC
UACC-62 melanoma = test system: UACC-62 melanoma
UO-31 renal = test system: UO-31 renal
BT-549 breast = test system: BT-549 breast
NCI/ADR-RES ovarian = test system: NCI/ADR-RES ovarian

Compound | TGI (SNB-75 CNS) | TGI (CAKI-1 renal) | TGI (MDA-N) | TGI (MALME-3M melanoma) | TGI (SK-OV-3 ovarian) | TGI (HOP-92 NSCLC) | TGI (UACC-62 melanoma) | TGI (UO-31 renal) | TGI (BT-549 breast) | TGI (NCI/ADR-RES ovarian)
CCOC(=O)c1cnccc1CC1(C#N)c2ccccc2C=CN1C(=O)c1ccccc1 (stereo not given) | 52.9 µM | > 100 µM | 45.8 µM | 26.5 µM | > 100 µM | > 100 µM | 80.9 µM | 91.1 µM | > 100 µM | > 100 µM
CCN(CC)c1nc(N(C)C)c2ccccc2n1 | > 100 µM | > 100 µM | 59.9 µM | > 100 µM | > 100 µM | > 100 µM | 56.1 µM | 85.1 µM | > 100 µM | > 100 µM
O=C1CC(n2cccc2)c2c(Br)sc(Br)c21 (stereo not given) | 35.1 µM | 19.8 µM | 31.6 µM | 38 µM | 35.2 µM | 33.1 µM | 30.3 µM | 5.66 µM | 34.3 µM | 69.6 µM
NS(=O)(=O)c1ccc(NNc2c3ccccc3nc3c(C(=O)Nc4ccc(S(=O)(=O)Nc5ncccn5)cc4)cccc23)cc1 | > 25 µM | > 25 µM | > 25 µM | > 25 µM | > 25 µM | > 25 µM | > 25 µM | > 25 µM | > 25 µM | > 25 µM
CCCNc1ncnc2[nH]ncc12 | > 100 µM | > 100 µM | > 100 µM | > 100 µM | > 100 µM | > 100 µM | > 100 µM | > 100 µM | > 100 µM | > 100 µM
O=c1cc(NCc2ccncc2)[nH]c(=O)[nH]1 | > 100 µM | > 100 µM | > 100 µM | > 100 µM | > 100 µM | > 100 µM | > 100 µM | > 100 µM | > 100 µM | > 100 µM
CCOC(=O)C1CCCCN1CCc1c[nH]c2ccccc12 (stereo not given) | > 100 µM | > 100 µM | > 100 µM | > 100 µM | > 100 µM | > 100 µM | > 100 µM | > 100 µM | > 100 µM | > 100 µM
CCN(CC)c1ccc2cc(-c3nc4ccccc4c(=O)[nH]3)c(=N)oc2c1 | > 100 µM | > 100 µM | > 100 µM | > 100 µM | > 100 µM | > 100 µM | > 100 µM | > 100 µM | > 100 µM | > 100 µM
C/C(=N\Nc1nc2ccccc2[nH]1)c1cc2ccccc2cn1 | 1.56 µM | 1.32 µM | 2.24 µM | 0.664 µM | 12.7 µM | 0.819 µM | 1.09 µM | 1.38 µM | 21.2 µM | 1.16 µM
O=C1c2ccccc2-c2[nH]c3cn[nH]c(=O)c3c21 | > 100 µM | > 100 µM | > 100 µM | > 100 µM | > 100 µM | > 100 µM | > 100 µM | > 100 µM | > 100 µM | > 100 µM
N#Cc1nc(C#N)n(C(=O)c2ccccc2)c1NC(=O)c1ccccc1 | > 100 µM | > 100 µM | > 100 µM | > 100 µM | > 100 µM | > 100 µM | > 100 µM | > 100 µM | > 100 µM | > 100 µM
O=[N+]([O-])c1ccc(C(Nc2ccccc2)c2ccc3cccnc3c2O)cc1 (stereo not given) | 55.5 µM | > 62.3 µM | > 100 µM | > 65.2 µM | > 100 µM | 72.9 µM | 35.8 µM | 32.3 µM | > 70.3 µM | > 69.3 µM
Cc1ccc(/C(O)=C/c2nc3ccc([N+](=O)[O-])cc3nc2/C=C(\O)c2ccc(C)cc2)cc1 | 36.8 µM | > 100 µM | > 100 µM | > 100 µM | 97.6 µM | > 100 µM | > 69.3 µM | > 100 µM | > 100 µM | > 100 µM
CCOP(=O)(OCC)/C(C#N)=C/c1cccn1Cc1ccccc1 | > 100 µM | > 100 µM | 92.4 µM | > 100 µM | > 100 µM | 36.9 µM | 55 µM | 99.7 µM | 74.7 µM | > 100 µM
S=C(NCc1ccccc1)N/N=C/c1ccccn1 | 47.8 µM | > 96.6 µM | > 100 µM | > 100 µM | > 29 µM | 52.7 µM | 25.1 µM | 21 µM | > 100 µM | 8.52 µM
Nc1nc(Cl)cc(NCC2(O)CCCC2)n1 | > 100 µM | > 100 µM | > 100 µM | > 100 µM | > 100 µM | > 100 µM | > 100 µM | > 100 µM | > 100 µM | > 100 µM
CC1OC2OC3C(OCC(O)C3O)OC(=O)[C@]34CCC(C)(C)CC3C3=CCC5[C@@]6(C)C[C@H](O)[C@H](OC7OC(CO)C(O)C(O)C7OC7OCC(OC(=O)CC(C)(O)CC(=O)OC1C(OC1OC(CO)C(O)C(O)C1O)C2O)C(O)C7O)[C@@](C)(CO)C6CC[C@@]5(C)[C@]3(C)CC4 (stereo not given in full) | 22.9 µM | 16.1 µM | 7.76 µM | 17.5 µM | 22.8 µM | 21.6 µM | 19.2 µM | 14.9 µM | 21.1 µM | 19.1 µM

— PubChem BioAssay (NCI)
